# Source: patent US11135187B2, “Compositions and methods for treating diabetic retinopathy” (Augusta University Research Institute, Inc., priority 2017, dated 2021)
# What was measured:
# albumin [1] = test: intravitreal Ang II-induced retinal albumin leakage; format: in vivo, mice; conditions: for intravitreal Ang II-induced retinal albumin leakage: EET 15 μg/kg/day s.c., Ang II intravitreal on day 3, leakage significant only with 11,12-EET
# Protocol: B6 Mice were injected mice with Ang II (1 or 5 μg per eye) or vehicle assayed for albumin leakage. The expression of albumin was used as the index of leakage assay. Mice were treated with 11, 12-EET (15 μg/kg/day, s.c.; Alzet: Cayman), 14,15-EET (15 μg/kg/day, s.c.; Alzet; Cayman), or vehicle. 11,12-EET and 14,15-EET were used because they are the major products of cytochrome P450 (CYP) epoxygenases. On day 3 after treatment, mice were intravitreally injected with Ang II (5 μg/μl).
# albumin [2] = test: intravitreal hVEGF-induced retinal albumin leakage; format: in vivo; conditions: 11,12-EET 15 μg/kg/day s.c. one week; sEH KO vs sEH (+/+) mice
# Protocol: sEH (−/−) and sEH (+/+) mice were treated with 11, 12-EET (15 μg/kg/day, s.c.; Alzet) or a vehicle for one week, then injected with hVEGF.
# albumin [3] = test: intravitreal Ang II-induced retinal albumin leakage in diabetic mice; format: in vivo; conditions: for intravitreal Ang II-induced retinal albumin leakage in diabetic mice: 11,12-EET 15 μg/kg/day s.c., MS-PPOH 20 mg/kg/day i.p.
# Protocol: (§1) One week after mice developed diabetes, diabetic and control mice were assigned to the following groups: Ang II (intravitreal injection with 5 μg/1 μL of Ang II); diabetes+Ang II; diabetes+Ang II+11,12-EET (15 μg/kg/day, s.c.; Alzet); diabetes+Ang II+MS-PPOH (CAS No. 206052-02-0-(N-methylsulfonyl-6-(2-propargyloxyphenyl)hexanamide, a selective EETs blocker; 20 mg/kg/day, i.p); and control. 11,12-EET was used because it potentiates intravitreal Ang II-induced retinal damage (FIGS. 4A-4C); also, MS-PPOH was used in a previous study (Huang, H., Exp Biol Med (Maywood), 231:1744-1752 (2006)).
# [4] = blood glucose levels in diabetic mice; format: in vivo; conditions: diabetic mice + Ang II; vs. 483±122 without treatment; not affected
# Protocol: as §1
# GLUT-1 = GLUT-1 expression in HRECs under HG and hypoxia; format: cell-based, human; conditions: HG (25 mM D-Glucose) + CO (CoCl2 hypoxia)
# Protocol: (§2) The expression of albumin, ICAM-1, IL-6, GADPH, GLUT-1, and sEH was analyzed by homogenization of tissues or cells. Samples from mice in different treatments as well as human retinal endothelial cells (HRECs) were separated by electrophoresis for 3 h. The proteins were transferred to an enhanced chemiluminescence (ECL) membrane in a transfer buffer. The membranes were blocked for 90 min with 5% nonfat dry milk in Tris-buffered saline. The membranes were incubated with antibody against albumin (1:5000; Bethyl), ICAM-1 (1:2000; Cell Signaling), IL-6 (1:2000; Santa Cruz), GADPH (1:2000; abeam), GLUT-1 (1:10,000; abeam), or sEH (1:500; Santa. Cruz). The membranes were incubated with secondary antibody for albumin, ICAM-1, IL-6, GADPH, GLUT-1, or sEH. Chemiluminescent detection using ECL reagent from Millipore Corporation was done on X-ray film. In addition, quantification of the expression levels of these proteins was analyzed with NIH image J software.
# Methods and Materials HRECs were subjected to L-glucose (osmotic control), L-Glu+hypoxia (CoCl2, 5 μM; CO), HG (25 mM of D-Glucose), or HG+CO.
# [5] = DIRECT trial, oral treatment; cited from earlier work
# sEH = test: Western blot of sEH protein in tissues of Ang II-infused mice; format: in vivo
# Protocol: as §2, with “Eight-week-old male B6 mice were treated for 4 weeks with Ang II (3 mg/kg/day, s.c.; […]; Cayman), Ang II (Sigma), or vehicle. […]. The expression” for “The expression”
# Male mice were treated for 4 weeks with Ang II (3 mg/kg/day, s.c.; Alzet)+telmisartan, a selective AT1 antagonist (2.5 mg/kg/day in drinking water; Cayman), Ang II, or vehicle.
# as §2, with “abcam),” for “abeam),”, “Santa” for “Santa.”
# [6] = EUCLID trial, 530 participants, after two years of treatment; cited from earlier work
# [7] = blood pressure in Ang II-induced hypertension; format: in vivo, mice; conditions: Ang II 3 mg/kg/day s.c., 4 weeks, vs vehicle
# albumin [8] = test: Western blot of total retinal albumin in Ang II-infused mice (retinal permeability); format: in vivo; conditions: Ang II 3 mg/kg/day s.c., 4 weeks, vs vehicle
# Protocol: The expression of albumin, ICAM-1 IL-6, GADPH, GLUT-1, and sEH was analyzed by homogenization of tissues or cells. Samples from mice in different treatments as well as human retinal endothelial cells (HRECs) were separated by electrophoresis for 3 h. The proteins were transferred to an enhanced chemiluminescence (ECL) membrane in a transfer buffer. The membranes were blocked for 90 min with 5% nonfat dry milk in Tris-buffered saline. The membranes were incubated with antibody against albumin (1:5000; Bethyl), ICAM-1 (1:2000; Cell Signaling), IL-6 (1:2000; Santa Cruz), GADPH (1:2000; abcam), GLUT-1 (1:10,000; abcam), or sEH (1:500; Santa Cruz). The membranes were incubated with secondary antibody for albumin, ICAM-1, IL-6, GADPH, GLUT-1, or sEH. Chemiluminescent detection using ECL reagent from Millipore Corporation was done on X-ray film. In addition, quantification of the expression levels of these proteins was analyzed with NIH image J software.
molecule,measurement,setting,value
"CCCCC/C=C\C[C@H]1O[C@H]1C/C=C\C/C=C\CCCC(=O)O [11,12-EET]",intravitreal Ang II-induced retinal albumin leakage,albumin [1],promoted
same,potency in potentiating intravitreal Ang II-induced retinal damage,albumin [1]; comparison of the two EETs,"more potent than 14,15-EET"
same,"effects of 11,12-EET on intravitreal hVEGF-induced retinal vascular leakage",albumin [2],potentiated
same,intravitreal Ang II-induced retinal albumin leakage in diabetic mice,albumin [3],increased
same,blood glucose levels,[4],528 ± 53 mg/dL
same,GLUT-1 expression in HRECs,GLUT-1,promoted GLUT-1 expression
CCOc1nc2cccc(C(=O)O)c2n1Cc1ccc(-c2ccccc2-c2nnn[nH]2)cc1 [candesartan],incidence of diabetic retinopathy,[5],decreased the incidence of diabetic retinopathy
same,progression of established diabetic retinopathy,[5],did not reduce the progression of established diabetic retinopathy
CCCc1nc2c(C)cc(-c3nc4ccccc4n3C)cc2n1Cc1ccc(-c2ccccc2C(=O)O)cc1 [telmisartan],Ang II-induced sEH expression in the heart,"sEH; heart, Ang II + telmisartan 2.5 mg/kg/day in drinking water, 4 weeks",attenuated
same,Ang II-induced sEH expression in the kidney,"sEH; kidney, Ang II + telmisartan 2.5 mg/kg/day in drinking water, 4 weeks",attenuated
same,Ang II-induced retinal expression of sEH,"sEH; retina, Ang II + telmisartan 2.5 mg/kg/day in drinking water, 4 weeks",reversed
NCCCC[C@H](N[C@@H](CCc1ccccc1)C(=O)O)C(=O)N1CCC[C@H]1C(=O)O [Lisinopril],reduction of progression of DR,[6],50%
same,reduction of progression to proliferative DR,[6],80%
"CCCCCC1OC1C/C=C\C/C=C\C/C=C\CCCC(=O)O (stereo not shown) [14,15-EET]",intravitreal Ang II-induced retinal albumin leakage,albumin [1],promoted
same,GLUT-1 expression in HRECs,GLUT-1,promoted GLUT-1 expression
"Ang II: angiotensin II, produced from Ang I by angiotensin-converting enzyme (DRVYIHPF; Angiotensin-2; UniProt P01019 25-32, looked up)",blood pressure,[7],became hypertensive
same,"retinal sEH protein levels, elevation vs vehicle group","sEH; retina, Ang II 3 mg/kg/day s.c., 4 weeks",2 fold
same,retinal expression of sEH,"sEH; retina, Ang II infusion 3 mg/kg/day s.c., 4 weeks (Example 4)",increased
same,total retinal albumin,albumin [8],did not affect total retinal albumin
same,albumin leakage (blood retinal barrier disruption) in diabetes,"albumin [3]; intravitreal Ang II 5 μg/1 μL, diabetic mice",significant increases in albumin leakage
"C#CCOc1ccccc1CCCCCC(=O)NS(C)(=O)=O [MS-PPOH, N-methylsulfonyl-6-(2-propargyloxyphenyl)hexanamide]",intravitreal Ang II-induced retinal albumin leakage in diabetic mice,albumin [3],decreased
same,blood glucose levels,[4],502 ± 57 mg/dL
